Reference: the supplement of paper PMC10307832

Experiments:
Experiment in all cases: relative viability (nuclei count vs DMSO), 5 days (fraction); higher = more cells survive
[1] = compound: CC1(COc2ccc3c(c2)ncn3-c2ccc3cccc(N4CCC(N)CC4)c3n2)COC1 [Crenolanib]
Outline: (§1)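 Lung cancer cell lines were seeded into 1536-well plates, kept overnight at 37 °C and pinned with five library-drug doses (not always all listed) spaced by √10. After 5 days, nuclei were Hoechst-stained, imaged at 4× and counted with MetaXpress. Viability is treated-well nuclei over vehicle-well nuclei, taken as a median across plates. Plates needed control CV below 25% and at least one doubling.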

[2] = compound: O=C1NC(=O)[C@@H](c2cn3c4c(cccc24)CCC3)[C@@H]1c1c[nH]c2ccccc12 [Tivantinib]
Outline: as §1

[3] = compound: CC1(COc2ccc3c(c2)ncn3-c2ccc3cccc(N4CCC(N)CC4)c3n2)COC1 [Crenolanib] + CC1(C)CCC(c2ccc(Cl)cc2)=C(CN2CCN(c3ccc(C(=O)NS(=O)(=O)c4ccc(N[C@H](CCN5CCOCC5)CSc5ccccc5)c(S(=O)(=O)C(F)(F)F)c4)cc3)CC2)C1 [Navitoclax] (partner 0.5 µM)
Outline: (§2)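 For relative viability, nuclei counts in treated wells were divided by those in vehicle wells. Lung cancer cell lines had been pin-tool dosed in 1536-well plates the day after seeding and cultured for 5 days, then fixed and stained in one step (final 0.05% Triton X-100, 1% formaldehyde, 1 ug/ml Hoechst) and imaged at 4×. Doses were one drug alone or a fixed anchor-drug dose plus five library-drug doses (not always all listed) in √10 steps, and values are duplicate-plate medians.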

[4] = compound: O=C1NC(=O)[C@@H](c2cn3c4c(cccc24)CCC3)[C@@H]1c1c[nH]c2ccccc12 [Tivantinib] + N=C(N)NC(=N)NCCc1ccccc1 [Phenformin] (partner 250 µM)
Outline: as §2

Cell Line	relative viability ([1]; 0.01 µM)	relative viability ([1]; 0.03162 µM)	relative viability ([1]; 0.1 µM)	relative viability ([1]; 0.3162 µM)	relative viability ([1]; 1 µM)	relative viability ([2]; 0.01 µM)	relative viability ([2]; 0.03162 µM)	relative viability ([2]; 0.1 µM)	relative viability ([2]; 0.3162 µM)	relative viability ([3]; first compound 0.01 µM)	relative viability ([3]; first compound 0.03162 µM)	relative viability ([3]; first compound 0.1 µM)	relative viability ([3]; first compound 0.3162 µM)	relative viability ([3]; first compound 1 µM)	relative viability ([4]; first compound 0.01 µM)	relative viability ([4]; first compound 0.03162 µM)	relative viability ([4]; first compound 0.1 µM)	relative viability ([4]; first compound 0.3162 µM)
NCI-H1944	1.06	0.934	0.964	0.985	0.773	0.922	0.875	0.882	0.717	0.987	1.03	1.04	1.13	1.03	0.189	0.179	0.192	0.228
NCI-H1793	0.909	1.02	0.811	1.07	0.88	0.923	0.98	0.837	0.61	0.441	0.362	0.386	0.386	0.511	0.347	0.388	0.371	0.213
NCI-H596	0.912	1.04	0.948	0.946	0.972	1.08	0.826	0.92	1.01	1.02	1.04	0.805	0.899	0.822	0.665	0.651	0.715	0.771
A549	1.05	0.977	0.959	1.12	0.949	0.993	0.979	0.793	0.992	1.2	1.13	1.18	1.53	1.02	0.158	0.169	0.146	0.263
NCI-H520	0.93	0.999	1.05	0.908	1.05	1.14	0.968	0.867	0.964	0.962	1.13	1.01	1.15	1.01	0.669	0.393	0.536	0.547
EKVX	1.06	0.871	0.916	1.05	1	0.953	0.957	0.936	0.371	1.01	0.898	0.881	1.11	0.899	0.218	0.256	0.243	–
H3255	1.02	0.935	0.929	0.984	0.918	0.971	0.934	1	–	0.607	0.419	0.421	0.501	0.492	0.315	0.357	0.355	–
NCI-H1650	0.927	0.955	1.03	0.867	0.876	0.956	0.813	0.829	0.849	1.22	1.13	1.14	1.6	1.34	0.438	0.352	0.416	0.32
NCI-H1395	0.983	0.778	0.975	0.795	0.853	1.07	1.08	0.907	0.924	1.13	1.26	1.07	1.18	1.15	0.468	0.513	0.45	0.437
NCI-H2228	0.944	1	0.871	1.11	1.1	1.03	0.893	0.931	0.815	0.796	0.62	0.764	1.24	1.3	–	0.296	0.283	0.223
NCI-H2023	1.1	1.03	0.952	1.17	0.785	1.02	0.859	0.856	0.824	1.02	0.996	0.977	1.09	0.956	0.484	0.41	0.422	0.444
NCI-H3122	1.02	0.989	0.98	1.1	1.1	0.986	1	0.923	0.877	0.987	1	0.985	1.04	1	0.369	0.394	0.359	0.361
NCI-H1792	1.15	0.777	0.82	0.858	0.784	0.849	0.842	0.935	1.08	0.656	0.408	0.579	0.673	0.642	0.396	0.567	0.297	0.492
HCC-827	1.08	1.02	1.03	1.04	0.958	1.06	1.07	1.04	0.765	0.976	1.03	0.978	1.07	0.995	0.338	0.466	0.379	0.166
LU99A	1.1	0.974	1.04	1	1.02	1.06	0.76	0.909	1.01	0.989	0.802	0.846	0.893	0.964	0.852	0.805	0.804	0.942
LC-2-ad	1.01	0.982	0.94	0.976	0.866	0.977	0.933	0.934	1.01	0.492	0.48	0.367	0.647	0.54	0.563	0.491	0.595	0.541
NCI-H322M	0.936	0.911	0.953	0.811	0.912	0.958	0.865	0.928	–	1.12	1.14	1.19	1.28	1.38	0.753	0.708	0.754	–
HOP-62	0.986	1.02	0.977	1.1	0.933	0.975	0.787	0.972	1.02	1.08	0.958	0.81	1.06	1.12	0.708	0.524	0.65	0.821
